Structures are written as SMILES. A value given as a limit tells only on which side of the number the result lay.

One assay relates to HBV viral load production from HepAD38 cells. As to the kind of experiment: Viral production from HepAD38 cells: viral load in supernatant by qPCR of the HBV core sequence. Conditions: 5 days incubation, qPCR of supernatant HBV DNA vs DMSO control, read-out: viral load lowering EC50 (Activity). It is filed as cell-based. Put shortly:
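Viral load was measured by qPCR of the HBV core region in supernatant, quantified against DNA standards and compared with DMSO wells. Cells (50,000/well, tetracycline withdrawn, 2% FBS) received compound from 10 μM final for 5 days; EC50 from four-parameter nonlinear regression.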
In general terms: Quantitative PCR measures a nucleic acid by following its amplification.
Turning to `Cc1nc(-c2ccccc2F)sc1[C@@H](NC(=O)C1CC(C(=O)Nc2ccc(F)c(Cl)c2)N(C)S(=O)(=O)N1)c1ccccc1` (single isomer, unassigned; isomer-d) [1101-ISOMER-D], the EC50 is 100 to 10000 nM. As to `CN1C(C(=O)Nc2ccc(F)c(Cl)c2)CC(C(=O)NCc2cc(-c3ccc(F)cc3)n(C)n2)NS1(=O)=O` (single isomer, unassigned) [1151-ISOMER-B, N3-(3-chloro-4-fluoro-phenyl)-N5-[[5-(4-fluorophenyl)-1-methyl-pyrazol-3-yl]methyl]-2-methyl-1,1-dioxo-1,2,6-thiadiazinane-3,5-dicarboxamide], the concentration for a half-maximal effect (EC50) was in the range of 100 to 10000 nM.

Staying with this assay, now noted: Hepatitis B virus, HePAD38, 120 h, 5 days incubation, qPCR of supernatant HBV DNA vs DMSO control, read-out: viral load lowering EC50 (Activity).
With `C[C@H](NC(=O)C1CC(C(=O)Nc2ccc(F)c(C#N)c2)N(C)S(=O)(=O)N1)c1ccc(F)cc1` (stereo partly drawn) [Compound 774], the concentration giving a half-maximal response (EC50) was 100 to 10000 nM.

Consider `C[C@H](NC(=O)C1CC(C(=O)Nc2ccc(F)c(Cl)c2)N(C)S(=O)(=O)N1)c1ccccc1` (stereo partly drawn) [Compound 755], for which the EC50 lay in the range of 100 to 10000 nM.

On to `CN1C(C(=O)Nc2ccc(F)c(Cl)c2)CC(C(=O)NCc2cnc(-c3ccc(SCCCO)cc3)s2)NS1(=O)=O` (stereo not drawn) [Compound 923], for which the EC50 was in the range of 50 to 100 nM.

For the compound `CN1C(C(=O)Nc2ccc(F)c(Cl)c2)CC(C(=O)NC2CCN(c3ccnc(-c4ccccc4)c3)CC2)NS1(=O)=O` (stereo not drawn) [Compound 1050], the EC50 was less than 50 nM. Take `COc1ccc(-c2cnc(CNC(=O)C3CC(C(=O)Nc4ccc(F)c(Cl)c4)N(C)S(=O)(=O)N3)s2)cc1` (single isomer, unassigned) [Compound 932-ISOMER-A, N3-(3-chloro-4-fluoro-phenyl)-N5-[[5-(4-methoxyphenyl)thiazol-2-yl]methyl]-2-methyl-1,1-dioxo-1,2,6-thiadiazinane-3,5-dicarboxamide]: the EC50 was in the range of 100 to 10000 nM. Still for that read-out and setting: the figure for `CCN1C(C(=O)Nc2ccc(F)c(Cl)c2)CC(C(=O)NCc2cnc(C)s2)NS1(=O)=O` (single isomer, unassigned) [Compound 888-ISOMER-A, N3-(3-chloro-4-fluoro-phenyl)-2-ethyl-N5-[(2-methylthiazol-5-yl)methyl]-1,1-dioxo-1,2,6-thiadiazinane-3,5-dicarboxamide] is 100 to 10000 nM; for `CN1C(C(=O)Nc2ccc(F)c(Cl)c2)CC(C(=O)NC2CCN(c3cc(CN4CCCCC4)ccn3)CC2)NS1(=O)=O` (stereo not drawn) [Compound 975] it is less than 50 nM. `CN1C(C(=O)Nc2ccc(F)c(Cl)c2)CC(C(=O)N[C@H](c2ccccc2)c2cnc(Cl)s2)NS1(=O)=O` (single isomer, unassigned) [1066-ISOMER-A]: the EC50 was in the range of 100 to 10000 nM. `Cc1ncc(CNC(=O)C2CC(C(=O)Nc3ccc(F)c(Cl)c3)N(C)S(=O)(=O)N2)s1` (single isomer, unassigned) [Compound 495-ISOMER-B, N3-(3-chloro-4-fluoro-phenyl)-2-methyl-N5-[(2-methylthiazol-5-yl)methyl]-1,1-dioxo-1,2,6-thiadiazinane-3,5-dicarboxamide]: the EC50 is less than 50 nM. Consider `CN1CCC(Oc2ccc(-c3ncc(CNC(=O)C4CC(C(=O)Nc5ccc(F)c(Cl)c5)N(C)S(=O)(=O)N4)s3)cc2)CC1` (single isomer, unassigned) [Compound 979-ISOMER-A, N3-(3-chloro-4-fluoro-phenyl)-2-methyl-N5-[[2-[4-[(1-methyl-4-piperidyl)oxy]phenyl]thiazol-5-yl]methyl]-1,1-dioxo-1,2,6-thiadiazinane-3,5-dicarboxamide], for which the EC50 lay within 100 to 10000 nM. With `CN1C(C(=O)Nc2ccc(F)c(Cl)c2)CC(C(=O)NC2CCN(c3ccnc(Cl)n3)CC2)NS1(=O)=O` (stereo not drawn) [Compound 1054], the 50% effective concentration (EC50) is less than 50 nM. As to `CN1C(C(=O)Nc2ccc(F)c(Cl)c2)CC(C(=O)NCC2CCN(c3ccccn3)CC2)NS1(=O)=O` (stereo not drawn) [Compound 961], the EC50 fell in the range of 100 to 10000 nM. In the case of `Cc1nc(-c2ccccc2)sc1CNC(=O)C1CC(C(=O)Nc2ccc(F)c(C#N)c2)N(C)S(=O)(=O)N1` (stereo not drawn) [Compound 1136], the EC50 was less than 50 nM.

Usually EC50 stands for the concentration at which the effect is half-maximal.

The values are drawn from US20230075856A1, “CYCLIC SULFAMIDE COMPOUNDS FOR TREATMENT OF HBV” (Assembly Biosciences, Inc., priority 2018, published 2023).
